The target in test [1] is T1, S1P1 receptor (Homo sapiens, UniProt P21453). Nature of the test: S1P1 β-arrestin recruitment assay in S1P1 overexpressing cell line (DiscoverX), luminescence. Format: cell-based.
The target of test [2] is T1, S1P1 receptor. Put plainly: S1P1 receptor internalization (endosome formation) assay in S1P1 overexpressing cell line (DiscoverX), luminescence. Format: cell-based.
[3] abbreviates: S1P1 overexpressing cell line, β-arrestin recruitment, luminescence, read-out: β-arrestin EC50.
The mark [4] stands for this setting: S1P1 overexpressing cell line, endosome formation by internalization, luminescence, read-out: Internalization EC50.

T1 sequence (P21453 whole entry): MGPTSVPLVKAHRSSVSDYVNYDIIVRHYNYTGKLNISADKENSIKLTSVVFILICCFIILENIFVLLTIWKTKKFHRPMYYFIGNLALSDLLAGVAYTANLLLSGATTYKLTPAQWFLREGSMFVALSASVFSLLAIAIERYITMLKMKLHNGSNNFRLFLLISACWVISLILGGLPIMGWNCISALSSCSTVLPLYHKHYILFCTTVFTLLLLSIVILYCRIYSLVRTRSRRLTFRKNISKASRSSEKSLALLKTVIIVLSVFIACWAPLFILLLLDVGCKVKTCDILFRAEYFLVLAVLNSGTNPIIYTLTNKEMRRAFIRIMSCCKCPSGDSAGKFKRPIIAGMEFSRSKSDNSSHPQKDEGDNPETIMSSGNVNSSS

As to `COC(=O)C1CN(Cc2ccc(-c3cnc(-c4ccc(C(C)(C)C)cc4)[se]3)cc2)C1` [Compound 1, Methyl 1-(4-(2-(4-tert-butylphenyl)-1,3-selenazole-5-yl)benzyl)azetidine-3-carboxylate], the EC50 was 11.1 nM at S1P1 receptor [1] and 173 nM on S1P1 receptor [2].
Regarding `CCOC(=O)C1CN(Cc2ccc(-c3cnc(-c4ccc(C(C)(C)C)cc4)[se]3)cc2)C1` [Compound 3, Ethyl 1-(4-(2-(4-tert-butylphenyl)-1,3-selenazole-5-yl)benzyl)azetidine-3-carboxylate], the EC50 on S1P1 receptor [1] is 23.6 nM; at S1P1 receptor [2], 116 nM.
Turning to `CC(C)(C)OC(=O)C1CN(Cc2ccc(-c3cnc(-c4ccc(C(C)(C)C)cc4)[se]3)cc2)C1` [Compound 4, Tert-butyl 1-(4-(2-(4-tert-butylphenyl)-1,3-selenazole-5-yl)benzyl)azetidine-3-carboxylate], the EC50 was 70.1 nM on S1P1 receptor [1] and 141 nM at S1P1 receptor [2].
The matching figures for `COC(=O)C1CN(Cc2ccc(-c3cnc(-c4ccc(OC(C)C)c(C#N)c4)[se]3)cc2)C1` [Compound 5]: 3.64 nM and 0.87 nM.
Take `CC(C)Oc1ccc(-c2ncc(-c3ccc(CN4CC(C(=O)O)C4)cc3)[se]2)cc1C#N` [Compound 6]: the values for the EC50 at S1P1 receptor [1] and on S1P1 receptor [2] were 0.37 nM and 0.065 nM, respectively.
On to `CCOC(=O)C1CN(Cc2ccc(-c3cnc(-c4ccc(OC(C)C)c(C#N)c4)[se]3)cc2)C1` [Compound 7, Ethyl 1-(4-(2-(3-cyano-4-isopropoxyphenyl)-1,3-selenazole-5-yl)benzyl)azetidine-3-carboxylate], for which the EC50 on S1P1 receptor [1] came to 1.17 nM; on S1P1 receptor [2], 4.33 nM.
Take `CC(C)Oc1ccc(-c2ncc(-c3ccc(CN4CC(C(=O)OC(C)(C)C)C4)cc3)[se]2)cc1C#N` [Compound 8, Tert-butyl 1-(4-(2-(3-cyano-4-isopropoxyphenyl)-1,3-selenazole-5-yl)benzyl)azetidine-3-carboxylate]: the half-maximal effective concentration (EC50) was 29.9 nM on S1P1 receptor [1] and 33.1 nM on S1P1 receptor [2].
For the compound `COC(=O)C1CN(Cc2ccc(-c3cnc(-c4ccc(OC(C)C)c(C(F)(F)F)c4)[se]3)cc2)C1` [Compound 9, Methyl 1-(4-(2-(4-isopropoxy-3-(trifluoromethyl)phenyl)-1,3-selenazole-5-yl)benzyl)azetidine-3-carboxylate], the results for the EC50 at S1P1 receptor [1] and at S1P1 receptor [2] were 1.82 nM and 1.59 nM, respectively.
Take `CC(C)Oc1ccc(-c2ncc(-c3ccc(CN4CC(C(=O)O)C4)cc3)[se]2)cc1C(F)(F)F` [Compound 10, 1-(4-(2-(4-isopropoxy-3-(trifluoromethyl)phenyl)-1,3-selenazole-5-yl)benzyl)azetidine-3-carboxylic acid]: the figures for the EC50 at S1P1 receptor [1] and at S1P1 receptor [2] were 0.45 nM and 0.36 nM, respectively.
Consider `CCOC(=O)C1CN(Cc2ccc(-c3cnc(-c4ccc(OC(C)C)c(C(F)(F)F)c4)[se]3)cc2)C1` [Compound 11, Ethyl 1-(4-(2-(4-isopropoxy-3-(trifluoromethyl)phenyl)-1,3-selenazole-5-yl)benzyl)azetidine-3-carboxylate], for which the 50% effective concentration (EC50) at S1P1 receptor [1] came out at 1.49 nM; on S1P1 receptor [2], 12.6 nM.
`COC(=O)C1CN(Cc2ccc(-c3cnc(-c4ccc(OC(C)C)c(Cl)c4)[se]3)cc2)C1` [Compound 12, Methyl 1-(4-(2-(3-chloro-4-isopropoxyphenyl)-1,3-selenazole-5-yl)benzyl)azetidine-3-carboxylate]: the concentration for a half-maximal effect (EC50) at S1P1 receptor [1] was found to be 1.41 nM; at S1P1 receptor [2], 1.48 nM.
Regarding `CCOc1ccc(-c2ncc(-c3ccc(CN4CC(C(=O)OC)C4)cc3)[se]2)cc1Cl` [Compound 14, Methyl 1-(4-(2-(3-chloro-4-ethoxyphenyl)-1,3-selenazole-5-yl)benzyl)azetidine-3-carboxylate], the EC50 on S1P1 receptor [1] amounted to 1.13 nM; at S1P1 receptor [2], 4.91 nM.
The matching figures for `COC(=O)C1CN(Cc2ccc(-c3cnc(-c4ccc(OC)cc4)[se]3)cc2)C1` [Compound 16, Methyl 1-(4-(2-(4-methoxyphenyl)-1,3-selenazole-5-yl)benzyl)azetidine-3-carboxylate]: 48.5 nM and 139 nM.
In the case of `COc1ccc(-c2ncc(-c3ccc(CN4CC(C(=O)O)C4)cc3)[se]2)cc1` [Compound 17, 1-(4-(2-(4-methoxyphenyl)-1,3-selenazole-5-yl)benzyl)azetidine-3-carboxylic acid], the EC50 was determined as 25.9 nM at S1P1 receptor [1] and 81.3 nM at S1P1 receptor [2].
With `COC(=O)C1CN(Cc2ccc(-c3cnc(-c4ccc(OC(C)C)cc4)[se]3)cc2)C1` [Compound 18, Methyl 1-(4-(2-(4-isopropoxyphenyl)-1,3-selenazole-5-yl)benzyl)azetidine-3-carboxylate], the values for the EC50 on S1P1 receptor [1] and on S1P1 receptor [2] were 3.24 nM and 9.26 nM, respectively.
On to `CC(C)Oc1ccc(-c2ncc(-c3ccc(CN4CC(C(=O)O)C4)cc3)[se]2)cc1` [Compound 19, 1-(4-(2-(4-isopropoxyphenyl)-1,3-selenazole-5-yl)benzyl)azetidine-3-carboxylic acid], for which the results for the EC50 at S1P1 receptor [1] and on S1P1 receptor [2] were 1.14 nM and 0.97 nM, respectively.
Take `CCOC(=O)C1CN(Cc2ccc(-c3cnc(-c4ccc(OC(C)C)cc4)[se]3)cc2)C1` [Compound 20, Ethyl 1-(4-(2-(4-isopropoxyphenyl)-1,3-selenazole-5-yl)benzyl)azetidine-3-carboxylate]: the results for the EC50 on S1P1 receptor [1] and at S1P1 receptor [2] were 3.05 nM and 119 nM, respectively.
As for `COC(=O)C1CN(Cc2ccc(-c3cnc(-c4cccc(OC(C)C)c4)[se]3)cc2)C1` [Compound 21, Methyl 1-(4-(2-(3-isopropoxyphenyl)-1,3-selenazole-5-yl)benzyl)azetidine-3-carboxylate], the half-maximal effective concentration (EC50) was 503 nM on S1P1 receptor [1] (setting [3]) and 379 nM on S1P1 receptor [2] (setting [4]).
For `CC(C)Oc1cccc(-c2ncc(-c3ccc(CN4CC(C(=O)O)C4)cc3)[se]2)c1` [Compound 22, 1-(4-(2-(3-isopropoxyphenyl)-1,3-selenazole-5-yl)benzyl)azetidine-3-carboxylic acid], the figures for the concentration giving a half-maximal response (EC50) on S1P1 receptor [1] and on S1P1 receptor [2] were 8.59 nM and 97.4 nM, respectively.
`COC(=O)C1CN(Cc2ccc(-c3cnc(-c4ccccc4OC(C)C)[se]3)cc2)C1` [Compound 23, Methyl 1-(4-(2-(2-isopropoxyphenyl)-1,3-selenazole-5-yl)benzyl)azetidine-3-carboxylate]: the half-maximal effective concentration (EC50) on S1P1 receptor [1] (setting [3]) and at S1P1 receptor [2] (setting [4]) was above 1000 nM throughout.
Consider `CC(C)Oc1ccccc1-c1ncc(-c2ccc(CN3CC(C(=O)O)C3)cc2)[se]1` [Compound 24, 1-(4-(2-(2-isopropoxyphenyl)-1,3-selenazole-5-yl)benzyl)azetidine-3-carboxylic acid], for which the concentration giving a half-maximal response (EC50) on S1P1 receptor [1] (setting [3]) and at S1P1 receptor [2] (setting [4]) was above 1000 nM in each case.
`CCOC(=O)C1CN(Cc2ccc(-c3cnc(-c4ccccc4OC(C)C)[se]3)cc2)C1` [Compound 25, Ethyl 1-(4-(2-(2-isopropoxyphenyl)-1,3-selenazole-5-yl)benzyl)azetidine-3-carboxylate]: the values for the EC50 on S1P1 receptor [1] (setting [3]) and on S1P1 receptor [2] (setting [4]) were 252 nM and 347 nM, respectively.
For `COC(=O)C1CN(Cc2ccc(-c3cnc(-c4ccccn4)[se]3)cc2)C1` [Compound 26, Methyl 1-(4-(2-(pyridine-2-yl)-1,3-selenazole-5-yl)benzyl)azetidine-3-carboxylate], the half-maximal effective concentration (EC50) at S1P1 receptor [1] (setting [3]) and at S1P1 receptor [2] (setting [4]) was above 1000 nM throughout.
Consider `O=C(O)C1CN(Cc2ccc(-c3cnc(-c4ccccn4)[se]3)cc2)C1` [Compound 27, Sodium 1-(4-(2-(pyridine-2-yl)-1,3-selenazole-5-yl)benzyl)azetidine-3-carboxylate], for which the concentration for a half-maximal effect (EC50) on S1P1 receptor [1] (setting [3]) and at S1P1 receptor [2] (setting [4]) was above 1000 nM in each case.
In the case of `COC(=O)C1CN(Cc2ccc(-c3cnc(-c4cccnc4)[se]3)cc2)C1` [Compound 28, Methyl 1-(4-(2-(pyridine-3-yl)-1,3-selenazole-5-yl)benzyl)azetidine-3-carboxylate], the EC50 at S1P1 receptor [1] (setting [3]) and at S1P1 receptor [2] (setting [4]) was above 1000 nM throughout.
Turning to `O=C(O)C1CN(Cc2ccc(-c3cnc(-c4cccnc4)[se]3)cc2)C1` [Compound 29, Sodium 1-(4-(2-(pyridine-3-yl)-1,3-selenazole-5-yl)benzyl)azetidine-3-carboxylate], the values for the EC50 on S1P1 receptor [1] (setting [3]) and on S1P1 receptor [2] (setting [4]) were 635 nM and 379 nM, respectively.
On to `COC(=O)C1CCN(Cc2ccc(-c3cnc(-c4ccc(C(C)(C)C)cc4)[se]3)cc2)C1` (stereo not shown) [Compound 30, Methyl 1-(4-(2-(4-tert-butylphenyl)-1,3-selenazole-5-yl)benzyl)pyrrolidine-3-carboxylate], for which the half-maximal effective concentration (EC50) worked out at 8.5 nM at S1P1 receptor [1] and 205 nM on S1P1 receptor [2].
Regarding `COC(=O)C1CCN(Cc2ccc(-c3cnc(-c4ccc(C(C)(C)C)cc4)[se]3)cc2)CC1` [Compound 32, Methyl 1-(4-(2-(4-tert-butylphenyl)-1,3-selenazole-5-yl)benzyl)piperidine-4-carboxylate], the EC50 turned out to be 580 nM at S1P1 receptor [1] (setting [3]) and 519 nM at S1P1 receptor [2] (setting [4]).
In the case of `COC(=O)C1CCN(Cc2ccc(-c3cnc(-c4ccc(OC(C)C)c(Cl)c4)[se]3)cc2)C1` (stereo not shown) [Compound 33, Methyl 1-(4-(2-(3-chloro-4-isopropoxyphenyl)-1,3-selenazole-5-yl)benzyl)pyrrolidine-3-carboxylate], the concentration for a half-maximal effect (EC50) was 1.79 nM at S1P1 receptor [1] and 11.9 nM on S1P1 receptor [2].
On the same counts, the results for `CCOC(=O)CNCc1ccc(-c2cnc(-c3ccc(OC(C)C)c(Cl)c3)[se]2)cc1` [Compound 35, Ethyl 2-(4-(2-(3-chloro-4-isopropoxyphenyl)-1,3-selenazole-5-yl)benzylamino)acetate] are 21 nM and 11.5 nM.
As for `COC(=O)CCNCc1ccc(-c2cnc(-c3ccc(OC(C)C)c(Cl)c3)[se]2)cc1` [Compound 37, Methyl 3-(4-(2-(3-chloro-4-isopropoxyphenyl)-1,3-selenazole-5-yl)benzylamino)propanoate], the concentration giving a half-maximal response (EC50) was 7.88 nM at S1P1 receptor [1] and 13.5 nM at S1P1 receptor [2].
For the compound `COC(=O)C1CN(Cc2ccc(-c3ncc(-c4ccc(C(C)(C)C)cc4)[se]3)cc2)C1` [Compound 39, Methyl 1-(4-(5-(4-tert-butylphenyl)-1,3-selenazole-2-yl)benzyl)azetidine-3-carboxylate], the values for the half-maximal effective concentration (EC50) at S1P1 receptor [1] and at S1P1 receptor [2] were 39.2 nM and 160 nM, respectively.

These data come from patent EP4567034A1 (Korea Institute of Science and Technology, priority 2022, dated 2024).
